Measured values: patent US20120034210A1, “COMPOSITIONS FOR POTENTIATING APOPOSIS SIGNALS IN TUMOUR CELLS” (INSTITUT BERGONIE, priority 2008, published 2012)
Entries after “also recorded” stand apart in the source; their conditions may differ.

Tests used:
[1] = system: DISC macro-complex (Fas/FADD/Caspase-8); assay: DISC formation: Fas immunoprecipitation and Western blot; format: cell-based, human; conditions: H9, Jurkat, activated PBTs; non-cytotoxic concentrations; vs untreated cells
Protocol: Cells were incubated with 1 μg/ml APO1-3 for 30 minutes at 4° C. After washing, cells were incubated for 15 minutes at 4° C. (0 minutes) or at 37° C. (15 minutes) and then lysed for 30 minutes at 4° C. in a lysis buffer (25 mM HEPES pH 7.4, 1% Triton X-100, 150 mM NaCl, 2 mM EDTA, a cocktail including protease inhibitors (Sigma)). The lysed cells were then centrifugated for 15 minutes at 15000 rpm in order to eliminate genomic DNA, and the supernatant was kept. The sepharose beads which were coupled with protein A were added to the lysate and the mixture was incubated for 2 hours. The beads were recovered, washed intensively and the immunoprecipitated proteins were re-suspended in a denaturing and reducing buffer (0.01M Tris-HCl pH6.8, 10% glycerol (v/v), 85 mM sodium dodecyl sulfate (SDS), 5% (v/v) […] and 0.005% (w/v) bromophenol blue) then heated at 100° C. for 5 minutes. The samples were deposited in an acrylamide/Bisacrylamide gel and separated by electrophoresis. The proteins were transferred from the gel into a nitrocellulose membrane using a semi-dry medium transfer technique for 2 hours at constant amperage (0.8 mA/cm^2). […] After transfer, the nitrocellulose membrane was saturated with proteins for 30 minutes with a TBST buffer (50 mM Tris pH=8, 0.15M sodium chloride, 0.05% (v/v) Tween-20) containing 5% (w/v) skimmed powdered milk (TBSTM). After washing with TBST, the membrane was incubated for 2 hours with the primary antibody in TBST. The membrane was washed intensively then incubated for one hour with TBST containing the secondary peroxidase-coupled antibody. […] This solution contained a substrate metabolised by peroxidase to yield a luminescent compound, which allowed marking a radiographic film (Amersham).

[2] = system: CD95; assay: CD95 capping (CD95-CAP), fluorescence confocal microscopy; format: cell-based, human; conditions: leukemic cell lines; culture up to 24 hours
Protocol: The cells were left to adhere on a slide pre-treated with poly-L-lysin (ESCO, VWR) for 5 minutes then incubated with the different reactants. The cells activated with the anti-Fas APO1-3 agonist antibody were washed and marked directly with the anti-mouse secondary antibody coupled with Alexa555 fluorochrome. The cells incubated with Rituximab (anti-CD20) were washed in a cold PBS buffer then fixed with a PBS/4% PFA (paraformaldehyde) solution for 15 min. […] The cells were washed in PBS medium then the slide was dried and the cells were placed in a mounting medium, Fluoroprep (Biomerieux) and analysed by fluorescence confocal microscopy (LSM SP5, Leica, Germany) with an x63 zoom. The DAPI (200 ng/ml) allowed colouring the nuclei.

[3] = system: CD95; assay: CD95 expression; format: cell-based, human; conditions: 2-APB or BAPTA-AM regimens
Protocol: This technique allowed detecting the presence of a protein on the cell surface. All the steps took place at 4° C. so as to reduce membrane proteins endocytosis and loss of cell labelling.
Plasma membrane of the cells (10^6 cells per marking) was saturated for 5 minutes in 1 ml PBS containing 1% (w/v) BSA (bovine serum albumin) and 1% (v/v) foetal veal serum (FVS). This solution was used for washings and antibody dilutions.
The cells were incubated for 30 minutes with 50 μl primary antibody (anti-Fas DX2 clone at 10 μg/ml), washed twice with the PBS/BSA/FCS solution, then incubated with 50 μl of a secondary antibody coupled with phycoerythrin for 30 minutes. After 3 washings, the cells were re-suspended in 200 μl PBS/BSA/SVF and analysed immediately by flow cytometry (FACsCalibur, BD Biosciences). The fluorescence intensity was analysed with the Cellquest software.

[4] = system: T and B leukemia/lymphoma cell lines and activated PBLs treated with FasL; assay: Fas/CD95-mediated cell death (MTT test); format: cell-based, human
Protocol: 2 to 4.10^4 cells were deposited in wells in a 96-well plate. The cells were incubated, in the presence of the different reactants for the times specified, at 37° C. in a final volume of 100 or 200 μl.
The MTT test enabled to measure the activity of a mitochondrial enzyme, the dehydrogenase succinate which transforms MTT (or 3-(4,5-dimethylthiazol-2-yl)-2,5-diphenyltetrazolium) bromide originally yellow in colour and soluble, into blue formazan crystals, insoluble in aqueous phase. Upon completion of the different treatments, the living cells were quantified by adding in each well 15 μl PBS (Phosphate Buffered Saline) containing 5 mg/ml MTT. […] Spectrophotometric reading of absorbance was done at 570 nm. The measurement of the optical density is directly proportional to the number of living cells and the percentage of cell death was calculated with the following formula: 100-[(DO treated cells/DO non-treated cells)*100].

[5] = target: caspase-8; assay: Caspase-8 activation/cleavage; format: cell-based, human
[6] = system: intracellular calcium concentration; assay: Intracellular Ca2+ concentration, indo-1 (micro)spectrofluorimetry; format: cell-based, human
Protocol: Principle: [Ca^2+]i was measured by microspectrofluorimetry using a calcium sensitive fluorescent probe: indo-1. When excited at 360 nm wavelength, the so-called monoexcitation/double emission indo-1 probe transmitted back in a spectrum ranging from 400 to 500 nm. Binding of Ca^2+ to indo-1 caused displacement of the emission spectrum after excitation. The emission maximum in the unbound form was located around 480 nm. The emission of the complexed form was around 405 nm. An increase of calcium concentration thus caused the emission to increase to 405 nm and the emission to decrease to 480 nm. The ratio of both fluorescence intensities allowed to be independent from the quantity of the probe and to determine the [Ca^2+]i according to the Grynkiewicz equation:
[Ca^2+]i(nM)=Kd.β×(R−Rmin)/(Rmax−R)
Rmax, Rmin and Kd. β were determined by combining electrophysiology (patch clamp) and spectrofluorimetry. Rmax was determined by placing in the patch pipette a medium containing 10 mM CaCl2. Rmin was obtained by placing as an intrapipette solution a calcium-deprived medium (10 mM EGTA).
The cells were then rinsed with HBSS (800 rpm centrifugation for 2 minutes) and placed in an observation chamber on a glass coverslip. […] The excitation light is supplied by a Xenon lamp (100W). […] The substances to be tested were applied using a glass pipette positioned at some twenty μm of the studied cell and connected to a pneumatic system.
The principle as well as the loading of the cells were identical with the measurement on single cells. In such a case, approx. 40,000 cells were placed in a quartz tub under constant agitation. The tub was then placed in a Hitachi spectrofluorimeter whereof the excitation monochromator was set to 350 nm. […] The signals were transmitted to a computer via an analogue/digital converter. So as to be able to apply the Grynkiewicz equation (see above) and translate the fluorescence ratios measured in calcium values, the calibration parameters were entered into the software. The substances to be tested were applied directly in the tube under constant agitation.

[7] = Mice calcemia after Zoledronate injection; format: in vivo; conditions: 4 mg/kg, one injection per week, 4 weeks, blood 3 days after last injection
Protocol: Blood samples were taken from mice 3 days after the last Zoledronate or vehicle injection and calcemia was assessed by COBAS INTEGRA Calcium® (Roche) micro-method.

[8] = system: Raji cells; assay: Raji B lymphoma tumour growth in Rag2-/-γ-/- mice; format: in vivo; conditions: Raji s.c.; single agent; Rituximab 2 mg/kg, Zoledronate 4 mg/kg
Protocol: The implantation of the tumours was done subcutaneously in Rag2−/−γ−/− mice flank aged from 5 to 7 weeks. Following implantation of the tumours, the mice were divided in groups of 8 to 10 animals for each treatment. The size of the tumour was assessed every day by measuring its width (w) and its length (I). Its volume was calculated according to the formula: V=lw^2/2. At the end of the experiment, the animals were sacrified, the tumour weight was measured.
From 10^6 Raji cells were implanted subcutaneously in mice flank. The effects of Rituximab alone, of Zoledronate alone, are assessed on the growth of tumours. Rituximab (2 mg/kg) was delivered 3 times a week, Zoledronate was delivered 1 time a week.

[9] = system: Raji, BL2, Jurkat cell lines and activated PBL; assay: Apoptosis % by loss of mitochondrial membrane potential; format: cell-based, human; conditions: Zoledronate 10 μM in vitro; BL2, Raji and Jurkat, respectively
Protocol: 2 to 4.10^4 cells were deposited in wells in a 96-well plate. The cells were incubated, in the presence of the different reactants for the times specified, at 37° C. in a final volume of 100 or 200 μl. The apoptotic cells were identified in the cellular populations by measuring mitochondrial de-polarisation. […] These potentiometric probes allowed monitoring the variations of the mitochondrial membrane potential. […] Following cell treatment with the different drugs, the former were placed in the presence of TMRM or DIOC6 at 10 nM concentration, for 20 minutes at 37° C. then the fluorescence of the cells was analysed by flow cytometry.

SMILES | DISC formation / FADD recruitment upon CD95 stimulation [1] | CD95-CAP formation [2] | expression of CD95 [3] | CD95-mediated apoptotic signal in CD95-resistant cells ([4]; Jurkat-CD95Q257K, pre-incubation with non-cytotoxic doses) | potentiation of FasL response ([4]; high doses of 2-APB (44 μM), T or B lymphoma/leukemic cell lines) | apoptotic signal by the agent alone ([4]; leukemic cell lines, long-term culture up to 24 hours, no CD95L) | kinetic of caspase-8 cleavage upon CD95L ([5]; T and B-cell lines) | caspase-8 activation or mitochondrial depolarization by the agent alone ([5]; during 60 minutes treatment, no CD95L) | increase in intracellular calcium induced by Thapsigargin and by extracellular calcium 0 to 5 mM ([6]; 2-APB 44 μM) | concentration of intracellular calcium ([6]; high doses of 2-APB, T or B lymphoma cell lines) | CD95-mediated peak of calcium ([6]; non-cytotoxic concentrations, CD95 stimulation) | basal [Ca2+]i ([6]; pre-incubation of cells) | calcemia vs vehicle [7] | tumour mass vs vehicle [8] | potentiation of apoptotic response to TRAIL, RTX and FasL [9] | intracellular calcium concentration ([6]; Zoledronate in vitro, all model cell lines tested)
NCCOB(c1ccccc1)c1ccccc1 [2-APB, 2-Aminoethoxydiphenyl borate] | dramatically improved the DISC formation; also recorded: induction of DISC formation | drives CD95-CAP | did not modify the expression of CD95 | restored the CD95-mediated apoptotic signal at a level comparable to the parental cell line | potentiated FasL response; also recorded: sensitizes drastically the Fas apoptotic signal | did not trigger the apoptotic signal | accelerated the cleavage of the initiator caspase-8 | no trace of caspase-8 activation or mitochondrial depolarization was detected | reduced the increase in the intracellular calcium concentration | induced decreasing concentration of intracellular calcium | totally abrogated the CD95-mediated peak of calcium | induced a faint decrease in the basal [Ca^2+]i |  |  |  | 
O=P(O)(O)C(O)(Cn1ccnc1)P(=O)(O)O [Zoledronate, zoledronate] |  |  |  |  |  |  |  |  |  |  |  |  | significant (p<0.05) decrease in their calcemia | not significantly affected | does not potentiate the apoptotic response | did not affect intracellular calcium concentration
